pEC50: −log10 of the molar value.
Key:
[1] = target: T1, CFTR in G551D/F508del primary CF hBE cells (Homo sapiens, UniProt P13569, G551D); test: Ussing chamber electrophysiology assay of CFTR potentiation in G551D/F508del CF bronchial epithelial cells (35° C.); assay type: cell-based; conditions: G551 D/F508del Ussing chamber assay at 35 degrees Celsius
T1 construct: Primary cystic fibrosis human bronchial epithelial (CF hBE) cells were expanded and cultured; endogenous in cells; host or cells: primary CF human bronchial epithelial cells, genotype G551D/F508del
T1 sequence (P13569 whole entry F508del/G551D): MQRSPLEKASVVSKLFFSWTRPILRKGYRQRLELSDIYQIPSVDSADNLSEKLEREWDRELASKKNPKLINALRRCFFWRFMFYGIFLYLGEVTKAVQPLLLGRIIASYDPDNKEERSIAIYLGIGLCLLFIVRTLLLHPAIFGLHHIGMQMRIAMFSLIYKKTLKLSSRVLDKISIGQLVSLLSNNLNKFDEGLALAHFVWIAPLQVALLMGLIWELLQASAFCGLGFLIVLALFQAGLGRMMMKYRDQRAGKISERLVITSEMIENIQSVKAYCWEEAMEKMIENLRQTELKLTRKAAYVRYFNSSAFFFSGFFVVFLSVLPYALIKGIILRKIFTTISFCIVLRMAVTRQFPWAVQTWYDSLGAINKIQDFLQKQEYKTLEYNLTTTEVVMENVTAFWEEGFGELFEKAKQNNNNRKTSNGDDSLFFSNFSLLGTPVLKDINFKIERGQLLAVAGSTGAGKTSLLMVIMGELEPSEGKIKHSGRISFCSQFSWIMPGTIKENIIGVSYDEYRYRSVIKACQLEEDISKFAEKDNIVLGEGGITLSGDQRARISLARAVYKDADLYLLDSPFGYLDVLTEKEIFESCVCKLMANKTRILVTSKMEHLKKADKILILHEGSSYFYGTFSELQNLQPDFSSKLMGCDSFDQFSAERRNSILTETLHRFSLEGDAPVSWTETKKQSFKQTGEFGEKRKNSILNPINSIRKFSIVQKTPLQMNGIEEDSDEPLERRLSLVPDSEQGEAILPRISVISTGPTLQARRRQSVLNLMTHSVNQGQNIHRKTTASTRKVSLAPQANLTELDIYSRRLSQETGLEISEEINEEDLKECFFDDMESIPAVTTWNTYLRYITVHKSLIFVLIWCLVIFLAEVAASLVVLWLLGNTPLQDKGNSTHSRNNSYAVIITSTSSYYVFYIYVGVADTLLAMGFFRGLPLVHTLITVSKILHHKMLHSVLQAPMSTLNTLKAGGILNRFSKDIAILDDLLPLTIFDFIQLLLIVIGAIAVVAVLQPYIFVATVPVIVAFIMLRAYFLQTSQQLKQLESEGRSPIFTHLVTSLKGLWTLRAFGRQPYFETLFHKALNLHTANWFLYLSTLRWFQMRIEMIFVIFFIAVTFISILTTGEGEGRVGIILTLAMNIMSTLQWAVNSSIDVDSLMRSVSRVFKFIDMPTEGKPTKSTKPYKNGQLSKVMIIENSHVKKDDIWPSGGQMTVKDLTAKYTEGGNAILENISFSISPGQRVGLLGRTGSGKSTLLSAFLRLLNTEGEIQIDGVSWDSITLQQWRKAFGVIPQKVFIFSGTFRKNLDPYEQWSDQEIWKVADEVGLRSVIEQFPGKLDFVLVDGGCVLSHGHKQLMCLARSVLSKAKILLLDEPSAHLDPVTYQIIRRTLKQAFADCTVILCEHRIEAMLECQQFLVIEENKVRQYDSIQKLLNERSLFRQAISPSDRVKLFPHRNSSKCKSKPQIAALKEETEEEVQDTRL
Description: • SHELXTL, Version 5.1, Bruker AXS, 1997. • PLATON, A. L. Spek, J. Appl. Cryst. 2003, 36, 7-13. • MERCURY, C. F. Macrae, P. R. Edington, P. McCabe, E. Pidcock, G. P. Shields, R. Taylor, M. Towler and J. van de Streek, J. Appl. Cryst. 39, 453-457, 2006. • OLEX2, Dolomanov, O. V.; Bourhis, L. J.; Gildea, R. J.; Howard, J. A. K.; Puschmann, H., (2009). J. Appl. Cryst., 42, 339-341. • R. W. W. Hooft et al. J. Appl. Cryst. (2008). 41. 96-103. • H. D. Flack, Acta Cryst. 1983, A39, 867-881. Using Chamber Electrophysiology Assay of CFTR Potentiation in CF Bronchial Epithelial Cells
Primary cystic fibrosis human bronchial epithelial (CF hBE) cells were expanded and cultured according to published methods (Neuberger et al., Ch. 4 of Cystic Fibrosis, Methods in Molecular Biology vol. 741, pp. 39-54 (2011)). Well-differentiated cells (>30 days at air/liquid interface) on Snapwell filters (Corning Costar, cat. no. 3801) were mounted in Ussing chambers (Physiologic Instruments, Inc., San Diego, CA). […] HEPES buffered physiological saline (composition (in mM): 137 NaCl, 4 KCl, 1 MgCl2, 1.8 CaCl2), 10 HEPES Na) was used in both apical and basolateral chambers. Chambers were bubbled with air to promote mixing and the voltage was clamped to zero. Amiloride (30 uM), forskolin (10 uM), test compound (4 increasing concentrations), and CFTRinh-172 (20 uM) were added sequentially with 20-25 minutes between additions. Short-circuit currents were acquired and analyzed using LabScribe2. Test compound responses were scaled relative to responses for DMSO (0%) and the maximal response of a positive control potentiator (100%).

[2] = target: T2, CFTR in F508del/F508del primary CF hBE cells (Homo sapiens, UniProt P13569, DEL508-508); test: Ussing chamber electrophysiology assay of CFTR potentiation in F508del/F508del CF bronchial epithelial cells (27° C.); assay type: cell-based
T2 construct: Primary cystic fibrosis human bronchial epithelial (CF hBE) cells were expanded and cultured; endogenous in cells; host or cells: primary CF human bronchial epithelial cells, genotype F508del/F508del
T2 sequence (P13569 with tags, fused parts or gaps DEL508-508): as the sequence (P13569 whole entry F508del/G551D) above, with D550G counted along it
How it was run: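 Well-differentiated primary CF hBE cells (>30 days air/liquid interface) in Ussing chambers, HEPES saline both sides, voltage clamped to zero. Amiloride 30 uM, forskolin 10 uM, four rising compound concentrations, then CFTRinh-172 20 uM added at 20-25 min intervals. Short-circuit current scaled to DMSO (0%) and a positive control potentiator maximum (100%).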

[3] = target: T3, recombinant F508del V470 CFTR in Fischer rat thyroid (FRT) cells (Homo sapiens, UniProt P13569, DEL508-508); test: FRT ion flux assay of F508del CFTR potentiation; assay type: cell-based; conditions: FRT cells expressing F508del V470 CFTR, forskolin 20 uM, 27° C. pre-incubation
T3 construct: expressed in transfected cells
T3 sequence (P13569 with tags, fused parts or gaps DEL508-508): as the sequence (P13569 whole entry F508del/G551D) above, with D550G counted along it
How it was run: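 FRT cells co-expressing F508del V470 CFTR and halide-sensitive YFP, temperature-corrected at 27° C for 16-24 h, then treated 30 min with compound plus 20 uM forskolin. Iodide addition quenches YFP, read after ~21 s; ratio scaled to DMSO (0%) and positive control potentiator (100%).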

G551 D patients = conditions: cited from earlier work
[4] = tested on: F508del homozygote patients; conditions: cited from earlier work

Compound	pEC50 [2]	pEC50 [3]	further results
CC[C@@H](c1cn(-c2ccc(F)cc2F)nn1)n1cc(-c2cnc(C(F)(F)F)nc2)c2c(N)ncnc21 (single isomer, unassigned) [Example 161]	7.96	8.07	pEC50 [1]: 6.52
CC[C@H](c1cn(-c2ccc(F)cc2F)nn1)n1cc(-c2cnc(C(F)(F)F)nc2)c2c(N)ncnc21 (single isomer, unassigned) [Example 162]	6.47	6.44	pEC50 [1]: 5.07
CCC(c1cn(-c2ccccc2F)nn1)n1cc(-c2cncnc2OC)c2c(N)ncnc21 (single isomer, unassigned; enantiomer 2) [Example 134, (+) 7-{1-[1-(2-Fluorophenyl)-1H-1,2,3-triazol-4-yl]propyl}-5-(4-methoxypyrimidin-5-yl)-7H-pyrrolo[2,3-d]pyrimidin-4-amine, enantiomer 2]	7.54	7.87	pEC50 [1]: 6.08
COc1nccnc1-c1cn(Cc2cn(-c3ccccc3F)nn2)c2ncnc(N)c12 [Example 296, 7-{[1-(2-Fluorophenyl)-1H-1,2,3-triazol-4-yl]methyl}-5-(3-methoxypyrazin-2-yl)-7H-pyrrolo[2,3-d]pyrimidin-4-amine]	7.30	6.91	
COc1ncccc1-c1cn(C(c2cn(-c3ccccc3F)nn2)C2CC2)c2ncnc(N)c12 (stereo not drawn) [Example 297, 7-{Cyclopropyl[1-(2-fluorophenyl)-1H-1,2,3-triazol-4-yl]methyl}-5-(2-methoxypyridin-3-yl)-7H-pyrrolo[2,3-d]pyrimidin-4-amine]	7.40	7.24	
COc1ncccc1-c1cn(C2(c3cn(-c4ccccc4F)nn3)CC2)c2ncnc(N)c12 [Example 298, 7-{1-[1-(2-Fluorophenyl)-1H-1,2,3-triazol-4-yl]cyclopropyl}-5-(2-methoxypyridin-3-yl)-7H-pyrrolo[2,3-d]pyrimidin-4-amine]	6.61	6.74	
Nc1ncnc2c1c(-c1cccc3ncoc13)cn2Cc1cn(-c2ccccc2F)nn1 [Example 299, 5-(1,3-Benzoxazol-7-yl)-7-{[1-(2-fluorophenyl)-1H-1,2,3-triazol-4-yl]methyl}-7H-pyrrolo[2,3-d]pyrimidin-4-amine]	6.56	6.63	
Nc1ncnc2c1c(-c1ncco1)cn2Cc1cn(-c2ccccc2F)nn1 [Example 301, 7-{[1-(2-Fluorophenyl)-1H-1,2,3-triazol-4-yl]methyl}-5-(1,3-oxazol-2-yl)-7H-pyrrolo[2,3-d]pyrimidin-4-amine]	6.34	6.44	
CCC(c1cn(-c2ccccc2F)nn1)n1cc(-c2cncnc2OC)c2c(N)nc(C)nc21 (stereo not drawn) [Example 302, 7-{1-[1-(2-Fluorophenyl)-1H-1,2,3-triazol-4-yl]propyl}-5-(4-methoxypyrimidin-5-yl)-2-methyl-7H-pyrrolo[2,3-d]pyrimidin-4-amine]	6.53	6.63	
COCC(c1cn(-c2ccccc2F)nn1)n1cc(-c2cccnc2OC)c2c(N)ncnc21 (stereo not drawn) [Example 314, 7-{1-[1-(2-Fluorophenyl)-1H-1,2,3-triazol-4-yl]-2-methoxyethyl}-5-(2-methoxypyridin-3-yl)-7H-pyrrolo[2,3-d]pyrimidin-4-amine]	6.45	6.64	
COc1ncncc1-c1cn(C(c2cn(-c3ccccc3F)nn2)C2COC2)c2ncnc(N)c12 (stereo not drawn) [Example 315, 7-{[1-(2-Fluorophenyl)-1H-1,2,3-triazol-4-yl](oxetan-3-yl)methyl}-5-(4-methoxypyrimidin-5-yl)-7H-pyrrolo[2,3-d]pyrimidin-4-amine]	5.53	6.03	
Nc1ncnc2c1c(C1CC1)cn2Cc1cnn(-c2ccccc2F)c1 [Example 317, 5-Cyclopropyl-7-{[1-(2-fluorophenyl)-1H-pyrazol-4-yl]methyl}-7H-pyrrolo[2,3-d]pyrimidin-4-amine]	7.06	6.89	
CNc1ncnc2c1c(-c1ccc(Cl)cc1)cn2C(C)c1cn(-c2ccccc2F)nn1 (stereo not drawn) [Example 318, 5-(4-Chlorophenyl)-7-{1-[1-(2-fluorophenyl)-1H-1,2,3-triazol-4-yl]ethyl}-N-methyl-7H-pyrrolo[2,3-d]pyrimidin-4-amine]	6.40	5.52	
CC(C)(C)c1cc(C(C)(C)C)c(NC(=O)c2c[nH]c3ccccc3c2=O)cc1O [Kalydeco, ivacaftor]			frequency of pulmonary exacerbations (G551 D patients): reduced the frequency of pulmonary exacerbations; lung function, percent predicted FEV1 increased (G551 D patients): 10-13%; weight (G551 D patients): allowed weight gain; improvement on monotherapy [4]: did not lead to any appreciable improvement

From patent US12612409B2, “Pyrrolopyrimidines as CFTR potentiators” (Cystic Fibrosis Foundation, priority 2016, dated 2026)
